Results from article PMC4774501 (Biomolecules & Therapeutics, 2016).

Target: T1, vitamin D receptor (VDR) (Homo sapiens, UniProt P11473)
T1 sequence (P11473 118-427): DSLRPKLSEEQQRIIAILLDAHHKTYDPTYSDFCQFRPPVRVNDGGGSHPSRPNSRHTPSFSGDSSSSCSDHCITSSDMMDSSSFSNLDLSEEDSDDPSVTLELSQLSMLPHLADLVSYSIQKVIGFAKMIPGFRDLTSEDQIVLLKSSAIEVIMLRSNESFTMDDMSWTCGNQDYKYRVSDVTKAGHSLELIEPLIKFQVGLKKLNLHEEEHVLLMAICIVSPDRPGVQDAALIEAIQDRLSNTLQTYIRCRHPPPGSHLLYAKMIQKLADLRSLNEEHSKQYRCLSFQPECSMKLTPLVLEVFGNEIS
Assay: intrinsic tryptophan fluorescence quenching titration
Type: binding

O=c1c(O)c(-c2ccc(O)c(O)c2)oc2cc(O)cc(O)c12 [quercetin]
Kd: 21.1 ± 4.31 µM
